From paper PMC8705538, “Discovery of SARS-CoV-2 Nsp14 and Nsp16 Methyltransferase Inhibitors by High-Throughput Virtual Screening” (Pharmaceuticals, 2021)

Tests used:
[1] = target: SARS-CoV-2 nsp14 (Severe acute respiratory syndrome coronavirus 2, UniProt P0DTD1); test: biochemical; settings: 100 μM
[2] = target: SARS-CoV-2 nsp16/nsp10 (Severe acute respiratory syndrome coronavirus 2, UniProt P0DTD1); test: biochemical; settings: 100 μM

Row | Structure (SMILES) | Percent inhibition at 100 μM, nsp14 [1] | Percent inhibition at 100 μM, nsp16 [2]
1 | CC[C@H](C)[C@H](N)C(=O)NS(=O)(=O)OC[C@H]1O[C@@H](n2cnc3c(N)ncnc32)[C@H](O)[C@@H]1O [ZINC000013488353] | 8 ±5% | 34 ±6%
2 | O=C(c1ccc(Cn2ccnc2)o1)N1CCc2[nH]c3ccc(Cl)cc3c2C1 [ZINC000072429175] | 0 ±4% | 6 ±5%
3 | NS(=O)(=O)c1ccc(NC2=NC(=O)C(CC(=O)O)S2)cc1 (stereo not drawn) [ZINC000001797008] | 0 ±2% | -35 ±10%
4 | O=C(NCc1cccnc1)C1CC(NCc2c(F)cccc2F)CN1Cc1ccccc1 (stereo not drawn) [ZINC000020999776] | -2 ±4% | 8 ±5%
5 | Cc1nc(CC(=O)N2CCCC(c3nc4ccccc4s3)C2)cs1 (stereo not drawn) [Compound 021-760-906] | 10 ±2% | 28 ±6%
6 | C=CCn1c(=O)c(=O)n(CC(=O)NCCN2CCN(c3cc(Cl)ccc3C)CC2)c2ccccc21 [ZINC000033268761] | 9 ±3% | 32 ±7%
7 | O=C(Nc1ccc(N2CCOCC2)cc1)c1oc2ccccc2c1CSc1nnc[nH]1 [ZINC000003404544] | 3 ±2% | 6 ±8%
8 | O=C(Cc1nnc(O)c2ccccc12)NCC(O)c1ccccc1 (stereo not drawn) [ZINC000009340377] | 5 ±4% | 2 ±5%
9 | O=C(CCc1c[nH]c2ccccc12)N1CCCC1c1ccc[nH]1 (stereo not drawn) [ZINC000019688789] | 2 ±0% | -10 ±1%
10 | COc1ccc(C2=NN(C(=O)CCc3ccc4c(c3)OCO4)C(O)(C(F)(F)F)C2)cc1 (stereo not drawn) [ZINC000016448507] | 9 ±4% | 11 ±5%
11 | O=C(CC1(C(=O)O)CC(c2ccc(F)cc2)=NO1)Nc1cccc(C(=O)O)c1 (stereo not drawn) [ZINC000072406141] | 14 ±7% | 31 ±8%
12 | O=C(CCn1cncn1)N1CCC(c2nc3ccccc3s2)CC1 [Compound 009-436-708] | 2 ±1% | -114 ±6%
13 | O=C(CCc1cncnc1)N1CCCC(c2nc3ccccc3s2)C1 (stereo not drawn) [Compound 046-723-388] | 5 ±3% | -45 ±13%
14 | O=C(C1CCc2sc(-c3ccncc3)nc2C1)N1CCc2c(nc[nH]c2=O)C1 (stereo not drawn) [ZINC1772809556] | 15 ±9% | 5 ±8%
15 | Cc1nn(C)c2ncc(NC(=O)c3ccccc3-c3ncc(-c4ccc(F)cc4)o3)cc12 [ZINC000032754717] | 14 ±6% | -24 ±9%
16 | Cc1cc(-c2ccc(C(=O)NCC(N)=O)cc2)nc(N2CCOCC2)n1 [ZINC000534574506] | 3 ±3% | 17 ±8%
17 | O=C(Cc1ccc2c(c1)CCO2)Nc1ccc2nc[nH]c(=O)c2c1 [ZINC000170622294] | -2 ±2% | -6 ±3%
18 | Cc1cc(=O)n2c(n1)NC(N1CCOCC1)=NC2c1ccccc1 (stereo not drawn) [ZINC000104279901] | -14 ±2% | -33 ±4%
19 | Nc1ncnc2c1ncn2[C@@H]1O[C@H](COS(=O)(=O)NC(=O)c2ccccc2O)[C@@H](O)[C@H]1O [ZINC000028567519] | 28 ±2% | 14 ±3%
20 | Cn1c(=O)c(=O)n(CC(=O)NCCN(CCc2ccccc2)Cc2ccco2)c2ccccc21 [ZINC000021649685] | 10 ±9% | 7 ±4%
21 | O=C(O)c1cc(CN2CC[C@@H](c3ccc4ccccc4c3)[C@H](O)C2)ccc1O [ZINC000065452571] | -3 ±8% | -2 ±5%
22 | O=C(O)CCC(=O)Nc1nc2n(n1)C(c1ccccc1)CC(=O)N2 (stereo not drawn) [ZINC000000095711] | -16 ±0% | -77 ±13%
23 | Cc1[nH]c(-c2ccccc2)nc1C(=O)NCc1ccc2[nH]c(=O)[nH]c2c1 [ZINC000680227150] | 19 ±7% | 23 ±5%
24 | O=C(Cc1csc(SCC(=O)c2ccccc2)n1)Nc1ccccc1 [Compound 005-296-365] | 27 ±2% | -17 ±4%
25 | O=C(CC1(O)C(=O)N(Cc2ccc3c(c2)OCO3)c2ccccc21)c1ccc(F)cc1 (stereo not drawn) [ZINC000000783765] | -10 ±3% | -3 ±4%
26 | O=C(CN1C(=O)c2ccccc2N2C(=O)c3ccccc3C12)N1CCc2c([nH]c3ccccc23)C1 (stereo not drawn) [ZINC000604419204] | 5 ±11% | -3 ±5%
27 | CC(C)Cn1c(CNC(=O)c2ccccc2C(F)(F)F)nnc1SCc1ccncc1 [ZINC000012152850] | 2 ±8% | 19 ±6%

Row | Structure (SMILES) | Percent inhibition at 100 μM, nsp14 [1] | Percent inhibition at 100 μM, nsp16 [2]
28 | CCc1n[nH]c2c1CN(C(=O)c1cccc(-c3cc(O)nc(N)n3)c1)CC2 [ZINC000426470786] | 1 ±6% | 8 ±5%
29 | O=C(CCc1ccncc1)NC(c1ccccc1)C1CC(O)C1 (stereo not drawn) [ZINC000252528037] | 13 ±2% | 36 ±3%
30 | CCN(Cc1ccncc1)C(=O)CC1C(=O)NCCN1CCCc1ccccc1 (stereo not drawn) [ZINC000011821342] | 5 ±5% | 17 ±11%
31 | COc1ccc(N2C(=O)CC(c3c(C)[nH]n(-c4nc5ccccc5s4)c3=O)C2=O)cc1 (stereo not drawn) [ZINC000018085229] | 11 ±6% | 17 ±6%
32 | CC1=C(C(=O)O)N2C(=O)C(NC(=O)C(N)c3ccc(O)cc3)C2SC1 (stereo not drawn) [ZINC000003830391] | -18 ±6% | -8 ±1%
33 | CC(=O)Nc1ccn(C2OC(CO)C(O)C2O)c(=O)n1 (stereo not drawn) [ZINC000001078602] | -15 ±5% | -9 ±1%
34 | O=C(CCc1nc2cc(Cl)ccc2[nH]1)N1CC[C@H](n2c(=O)[nH]c3cccnc32)C1 [ZINC1548405210] | 6 ±2% | 15 ±2%
35 | O=C(CCn1cncn1)N1CCCC1c1nc2ccccc2s1 (stereo not drawn) [Compound 009-447-345] | 2 ±0% | 1 ±1%
36 | Nc1nc2c(c(=O)[nH]1)CC(CCc1ccc(C(=O)NC(CCC(=O)O)C(=O)O)cc1)CN2 (stereo not drawn) [ZINC000077301924] | 5 ±6% | 15 ±10%
37 | COc1c(C)c2c(c(O)c1CC=C(C)CCC(=O)Nc1nnc[nH]1)C(=O)OC2 [ZINC000096115284] | 5 ±4% | -68 ±6%
38 | O=C(Nc1ccccc1-c1ccccc1)C1CCCN(c2ccc(-n3cncn3)nn2)C1 (stereo not drawn) [ZINC000096124096] | 9 ±7% | 10 ±1%
39 | COc1cccc(C2CC(O)=Nc3c2c(C)nn3-c2ncnc3[nH]cnc23)c1 (stereo not drawn) [ZINC000020745418] | -8 ±5% | -7 ±2%
40 | Cn1nccc1CCC(=O)N1CCCC(c2nc3ccccc3s2)C1 (stereo not drawn) [Compound 042-575-680] | 8 ±1% | 33 ±9%
41 | Cc1ccc(NC(=O)Cn2c(=O)n(CC(=O)NCc3ccco3)c(=O)c3ccccc32)cc1C [ZINC000009617688] | 10 ±6% | -8 ±4%
42 | O=C(CCCn1cncn1)N1CCCC(c2nc3ccccc3s2)C1 (stereo not drawn) [Compound 045-938-897] | 7 ±2% | -29 ±5%
43 | CN(C)c1nc2c(c(=O)[nH]1)CCN(C(=O)c1n[nH]cc1Cl)C2 [ZINC000072172639] | -1 ±2% | 29 ±5%
44 | Cn1cnn(CCC(=O)N2CCCC(c3nc4ccccc4s3)C2)c1=O (stereo not drawn) [Compound 046-705-372] | 5 ±3% | 15 ±8%
45 | O=C(CP(=O)(O)O)N=c1[nH]c2ccc(Cl)cc2s1 [ZINC000020502712] | 7 ±6% | 17 ±7%
46 | CCOc1c(Cl)cc(C(=O)Nc2cccc(C(=O)O)c2)cc1Cl [ZINC000004649202] | -1 ±3% | 14 ±5%
47 | Nc1ncnc2c1ncn2CC(O)CO (stereo not drawn) [ZINC000000370772] | -9 ±12% | -34 ±9%
48 | CC1(O)Cc2n[nH]c(O)c2C(c2ccccc2)C1 (stereo not drawn) [ZINC000035326963] | 4 ±8% | -2 ±6%
49 | Cn1cc(CCC(=O)N2CCCC(c3nc4ccccc4s3)C2)cn1 (stereo not drawn) [Compound 046-706-934] | 5 ±3% | -113 ±16%
50 | CN1CC(=O)N(c2cccc(NC(=O)NC[C@H](O)CO)c2)C1=O [ZINC000426716892] | -1 ±2% | 30 ±2%
51 | Cn1nc(CC(=O)NCCCc2nnc3ccccn23)c2ccccc2c1=O [ZINC000095478169] | -6 ±2% | -53 ±8%
52 | COc1ccc(CCNC(=O)C2C3C=CC4(CN(c5ccc6c(c5)OCO6)C(=O)C24)O3)cc1 (stereo not drawn) [ZINC000012895535] | 5 ±2% | -15 ±6%
53 | Cc1ccc(Oc2ncccc2CNC(=O)c2cnc(O)cc2O)cn1 [ZINC000067754517] | 11 ±3% | 39 ±8%
54 | Cc1csc(C2CCCN(C(=O)CCn3cnc4c(N)ncnc43)C2)n1 (stereo not drawn) [Compound 046-114-939] | 15 ±4% | 37 ±13%
